In patent US12655130B2 (ASSEMBLY BIOSCIENCES, INC., priority 2020, dated 2026) one finds EC50 data, which are given here for 20 compounds.

Broadly, the EC50 is the concentration giving half of the maximal effect.

SMILES strings stand for the structures.

In the first test the test system is HBV viral load (viral production from HepAD38 cells). As to the kind of experiment: Activity of test compounds on viral production from HepAD38 cells (viral load by qPCR of HBV core sequence). Type of test: cell-based. The note with it: Hepatitis B virus, HePAD38, 120 h, viral load lowering, 5 days, qPCR of supernatant, read-out: VL HepAD38 EC50 range. Here is the method:
Assay Measuring Activity of Test Compounds on Viral Production from HepAD38 Cells
HepAD38 cells grown in a T-150 flask (Corning, cat #: 430825) with Growth Medium (DMEM/F12 (1:1) (Hyclone, cat #: SH30023.02), 1× Pen/Strep (Invitrogen, cat #: 15140-122), 10% FBS (Tissue Culture Biologics, cat #: 101), 250 μg/mL G418 (Alfa Aesar, cat #: J62671), 1 μg/mL Tetracycline (Teknova, cat #: T3320)) were detached with 0.25% trypsin-EDTA (Invitrogen, cat #: 25200-056). Tetracycline-free treatment medium (15 mL DMEM/F12 (1:1) 1× Pen/step, with 2% FBS, Tet-system approved (Clontech, cat #: 631106) were then added to mix, transferred into a 50 ml conical tube (Falcon, cat #: 21008-918) and spun at 1300 rpm for 5 min. Pelleted cells were then re-suspended/washed with 50 mL of 1×DPBS (Invitrogen, cat #: 14190-136) 2 times and 50 mL treatment medium twice. HepAD38 cells were then re-suspended with 10 mL of treatment medium, syringed and counted. Wells of 96-well clear bottom TC plate (Corning, cat #: 3904) were seeded at 50,000 cells/well in 180 μL of treatment medium, and 20 μL of either 10% DMSO (Sigma, cat #: D4540) as controls or a 10× solution of test compounds in 10% DMSO in treatment media was added for a final compound concentration starting at 10 μM, and plates were incubated in 5% CO2 incubator at 37° C. for 5 days.
Subsequently viral load production was assayed by quantitative PCR (qPCR) of the HBV core sequence. PCR reaction mixture containing forward primers HBV-f 5′-CTGTGCCTTGGGTGGCITT-3′ (IDT DNA), Reverse primers HBV-r 5′-[…]-3′ (IDT DNA), Fluorescent TaqMan™ Probes HBV-probe 5′-FAM/AGCTCCAAA/ZENMITCTITATAAGGGTCGATGTC/3IABkFQ-3′ (IDT DNA), 10 μL/well of PerfeCTa® qPCR ToughMix® (Quanta Biosciences, Cat #: 95114-05K), and 6 μL/well of DEPC water (Alfa Aesar, cat #: J62087) was prepared. Four μL of supernatant was added to 16 μL of the reaction mixture in a qPCR plate (Applied Biosytems, Cat #: 4309849), sealed with a film (Applied Biosystems, Cat #: 4311971), centrifuged for a few seconds, and subsequently run on an Applied Biosystems VIIA7. The PCR mixture was incubated at 45° C. for 5 min, then 95° C. for 10 min, followed by 40 cycles of 10 seconds at 95° C. and 20 seconds at 60° C. Viral load was quantified against known HBV DNA standards by using ViiA™ 7 Software. Viral load in the supernatant from wells with treated cells were compared against viral load in supernatant from DMSO control wells (3 per plate). Cell viability assay was performed with CellTiter-Glo Luminescent Cell Viability Assay (Promega, cat #: G7573) with modification. Mixed appropriate amount of CellTiter-Glo (CTG) 1×DPBS in a 1:1 ratio, added 100 uL of the mixture to each well followed completely removal of all supernatant in each well without touching cell surface. Incubated the plate at room temperature for 10 min on an orbital shaker, and then read the plate with a plate reader (TECAN M1000 or Envision). EC50 or CC50 values were calculated through curve-fitting of the four-parameter nonlinear-logistic-regression model (GraphPad Prism or Dotmatics). CC50 values were all >10 μM.
`O=C(Nc1ccc(F)c(Cl)c1)c1c(C2CC3CC(O)CC3C2)nc2n1CCNC2` (centres unmarked) [Example 85, N-(3-chloro-4-fluorophenyl)-2-(5-hydroxyoctahydropentalen-2-yl)-5,6,7,8-tetrahydroimidazo[1,2-a]pyrazine-3-carboxamide]: the EC50 was 50 to 500 nM. As for `Cn1cnc(C2CC3CC(O)(c4cc(NCC(F)(F)F)nn4C)CC3C2)c1C(=O)Nc1ccc(F)c(Cl)c1` (centres unmarked) [Example 197, N-(3-Chloro-4-fluorophenyl)-4-(5-hydroxy-5-(1-methyl-3-((2,2,2-trifluoroethyl)amino)-1H-pyrazol-5-yl)octahydropentalen-2-yl)-1-methyl-1H-imidazole-5-carboxamide], the EC50 was under 10 nM. As to `Cn1cnc(C2CC3CC(O)(c4[nH]nc(C(F)(F)F)c4Br)CC3C2)c1C(=O)Nc1ccc(F)c(C#N)c1` (centres unmarked) [Example 195, 4-(5-(4-Bromo-3-(trifluoromethyl)-1H-pyrazol-5-yl)-5-hydroxyoctahydropentalen-2-yl)-N-(3-cyano-4-fluorophenyl)-1-methyl-1H-imidazole-5-carboxamide], the EC50 was under 10 nM. The same measure, in the same setting: with `Cn1cnc(C2CC3CC(O)(c4c(F)c(OCCO)nn4C)CC3C2)c1C(=O)Nc1ccc(F)c(Cl)c1` (centres unmarked) [Example 213, N-(3-Chloro-4-fluorophenyl)-4-(5-(4-fluoro-3-(2-hydroxyethoxy)-1-methyl-1H-pyrazol-5-yl)-5-hydroxyoctahydropentalen-2-yl)-1-methyl-1H-imidazole-5-carboxamide] the figure was under 10 nM; with `CC(O)c1nn(C)cc1C1(O)CC2CC(c3ncn(C)c3C(=O)Nc3ccc(F)c(Cl)c3)CC2C1` (single isomer, unassigned) [Example 188, N-(3-Chloro-4-fluorophenyl)-4-(5-hydroxy-5-(3-(1-hydroxyethyl)-1-methyl-1H-pyrazol-4-yl)octahydropentalen-2-yl)-1-methyl-1H-imidazole-5-carboxamide], under 10 nM; with `Cn1cnc(C2CC3CC(O)(c4cc(C(F)(F)F)n[nH]4)CC3C2)c1C(=O)Nc1ccc(F)c(C#N)c1` (centres unmarked) [Example 194, N-(3-Cyano-4-fluorophenyl)-4-(5-hydroxy-5-(3-(trifluoromethyl)-1H-pyrazol-5-yl)octahydropentalen-2-yl)-1-methyl-1H-imidazole-5-carboxamide], 10 to 50 nM. In the case of `Cn1cnc(C2CC3CC(O)(c4cc[nH]n4)CC3C2)c1C(=O)Nc1ccc(F)c(Cl)c1` (centres unmarked) [Example 116, N-(3-chloro-4-fluorophenyl)-4-(5-hydroxy-5-(1H-pyrazol-3-yl)octahydropentalen-2-yl)-1-methyl-1H-imidazole-5-carboxamide], the EC50 was under 10 nM. Same read-out and setting: with `C[C@H](O)c1cc(C2(O)CC3CC(c4ncn(C)c4C(=O)Nc4ccc(F)c(Cl)c4)CC3C2)n(C)n1` (stereo partly drawn) [Example 78, N-(3-Chloro-4-fluorophenyl)-4-(−5-hydroxy-5-(3-((S)-1-hydroxyethyl)-1-methyl-1H-pyrazol-5-yl)octahydropentalen-2-yl)-1-methyl-1H-imidazole-5-carboxamide] the figure was under 10 nM. In the case of `Cn1cnc(C2CC3CC(O)(c4cc([N+](=O)[O-])n[nH]4)CC3C2)c1C(=O)Nc1ccc(F)c(Cl)c1` (centres unmarked) [Example 146, N-(3-Chloro-4-fluorophenyl)-4-(5-hydroxy-5-(3-nitro-1H-pyrazol-5-yl)octahydropentalen-2-yl)-1-methyl-1H-imidazole-5-carboxamide], the EC50 was under 10 nM. With `Cn1cnc(C2CC3CC(O)(c4cc(C(C)(C)C#N)nn4C)CC3C2)c1C(=O)Nc1ccc(F)c(Cl)c1` (centres unmarked) [Example 104, N-(3-chloro-4-fluorophenyl)-4-(5-(3-(2-cyanopropan-2-yl)-1-methyl-1H-pyrazol-5-yl)-5-hydroxyoctahydropentalen-2-yl)-1-methyl-1H-imidazole-5-carboxamide], the EC50 is under 10 nM.

As to `Cn1cnc(C2CC3CC(O)(c4c(C(N)=O)cnn4C)CC3C2)c1C(=O)Nc1ccc(F)c(Cl)c1` (centres unmarked) [Example 126, 5-(5-(5-((3-chloro-4-fluorophenyl)carbamoyl)-1-methyl-1H-imidazol-4-yl)-2-hydroxyoctahydropentalen-2-yl)-1-methyl-1H-pyrazole-4-carboxamide], the EC50 was under 10 nM. On the same count and under the same terms, next, `Cn1cc(C2(O)CC3CC(c4ncn(C)c4C(=O)Nc4ccc(F)c(Cl)c4)CC3C2)c(C(C)(C)O)n1` (centres unmarked) [Example 187, N-(3-Chloro-4-fluorophenyl)-4-(5-hydroxy-5-(3-(2-hydroxypropan-2-yl)-1-methyl-1H-pyrazol-4-yl)octahydropentalen-2-yl)-1-methyl-1H-imidazole-5-carboxamide]: under 10 nM; `[2H]C([2H])([2H])n1nccc1C1(O)CC2CC(c3ncn(C)c3C(=O)Nc3ccc(F)c(Cl)c3)CC2C1` (centres unmarked) [Example 137, N-(3-chloro-4-fluorophenyl)-4-(5-hydroxy-5-(1-(methyl-d3)-1H-pyrazol-5-yl)octahydropentalen-2-yl)-1-methyl-1H-imidazole-5-carboxamide]: under 10 nM. The same measure, in the same setting: with `Cn1cnc(C2CC3CC(O)(c4cnn(C)c4C(F)F)CC3C2)c1C(=O)Nc1ccc(F)c(Cl)c1` (centres unmarked) [Example 147, N-(3-Chloro-4-fluorophenyl)-4-(5-(5-(difluoromethyl)-1-methyl-1H-pyrazol-4-yl)-5-hydroxyoctahydropentalen-2-yl)-1-methyl-1H-imidazole-5-carboxamide] the figure was under 10 nM. Consider `CC(=O)c1nn(C)c(C2(O)CC3CC(c4ncn(C)c4C(=O)Nc4ccc(F)c(Cl)c4)CC3C2)c1F` (centres unmarked) [Example 65, 4-(5-(3-Acetyl-4-fluoro-1-methyl-1H-pyrazol-5-yl)-5-hydroxyoctahydropentalen-2-yl)-N-(3-chloro-4-fluorophenyl)-1-methyl-1H-imidazole-5-carboxamide], for which the EC50 was under 10 nM. As for `Cn1c(Cl)nc(C2CC3CC(O)CC3C2)c1C(=O)Nc1ccc(F)c(Cl)c1` (centres unmarked) [Example 22, 2-Chloro-N-(3-chloro-4-fluorophenyl)-4-(5-hydroxyoctahydropentalen-2-yl)-1-methyl-1H-imidazole-5-carboxamide], the EC50 is under 10 nM. The same measure, in the same setting: with `CC(O)COc1cc(C2(O)CC3CC(c4ncn(C)c4C(=O)Nc4ccc(F)c(Cl)c4)CC3C2)n(C)n1` (centres unmarked) [Example 208, N-(3-Chloro-4-fluorophenyl)-4-(5-hydroxy-5-(3-(2-hydroxypropoxy)-1-methyl-1H-pyrazol-5-yl)octahydropentalen-2-yl)-1-methyl-1H-imidazole-5-carboxamide] the figure was under 10 nM.

`Cn1cnc(C2CC3CC(O)(c4cc(NS(C)(=O)=O)nn4C)CC3C2)c1C(=O)Nc1ccc(F)c(Cl)c1` (centres unmarked) [Example 198, N-(3-Chloro-4-fluorophenyl)-4-(5-hydroxy-5-(1-methyl-3-(methylsulfonamido)-1H-pyrazol-5-yl)octahydropentalen-2-yl)-1-methyl-1H-imidazole-5-carboxamide]: the EC50 was 10 to 50 nM. On the same count and under the same terms, next, `O=C(Nc1ccc(F)c(Cl)c1)c1scnc1C1CC2CC(O)CC2C1` (centres unmarked) [Example 39, N-(3-Chloro-4-fluorophenyl)-4-(5-hydroxyoctahydropentalen-2-yl)thiazole-5-carboxamide]: under 10 nM.

Staying with this test, now noted: viral load lowering, 5 days, qPCR of supernatant, read-out: VL HepAD38 EC50 range.
With `CC(O)c1cc(C2(O)CC3CC(c4ncn(C)c4C(=O)Nc4ccc(F)c(Cl)c4)CC3C2)n(C)n1` (centres unmarked) [Example 60, N-(3-Chloro-4-fluorophenyl)-4-(5-hydroxy-5-(3-(1-hydroxyethyl)-1-methyl-1H-pyrazol-5-yl)octahydropentalen-2-yl)-1-methyl-1H-imidazole-5-carboxamide], the EC50 was under 10 nM.
